Counter-ions that a name gives are not always drawn.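 Following 48 hours of exposure in 96-well plates, responses at five concentrations were used to interpolate endpoints linearly. GI50 is the concentration that inhibits growth by half.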 The source made the active and inactive calls. No stated cut-off is given here; in the data, active = GI50 up to about 1.1 µM and inactive = higher.
Columns and labels:
Assay in all cases: inhibition of tumour cell growth, NCI panel, 48 h
RXF 393 = system: RXF 393
MDA-MB-435 = system: MDA-MB-435
HCT-15 = system: HCT-15
CAKI-1 = system: CAKI-1
EKVX = system: EKVX
MDA-N = system: MDA-N
HOP-62 = system: HOP-62
NCI-H226 = system: NCI-H226
SK-OV-3 = system: SK-OV-3
NCI/ADR-RES = system: NCI/ADR-RES
MDA-MB-231 = system: MDA-MB-231
NCI-H23 = system: NCI-H23
TK-10 = system: TK-10
UACC-257 = system: UACC-257
SN12C = system: SN12C
OVCAR-3 = system: OVCAR-3
SK-MEL-28 = system: SK-MEL-28
PC-3 = system: PC-3
SF-295 = system: SF-295
UACC-62 = system: UACC-62

Compound: CC[C@]12CN3CCc4c([nH]c5ccccc45)[C@@](C(=O)OC)(c4cc5c(cc4OC)N(C)[C@H]4[C@@](O)(C(=O)OC)[C@H](OC(C)=O)[C@]6(CC)C=CCN7CC[C@]54[C@@H]76)CC(C3)[C@H]1O2 (stereo not given in full) [VINLEUROSINE SULFATE]
- GI50 (RXF 393): 158 nM (active)
- GI50 (MDA-MB-435): < 10 nM (active)
- GI50 (HCT-15): 449 nM
- GI50 (CAKI-1): 2160 nM (inactive)
- GI50 (EKVX): 10800 nM (inactive)
- GI50 (MDA-N): < 10 nM (active)
- GI50 (HOP-62): 100 nM (active)
- GI50 (NCI-H226): 221 nM (active)
- GI50 (SK-OV-3): 120 nM (active)
- GI50 (NCI/ADR-RES): 16100 nM (inactive)
- GI50 (MDA-MB-231): 291 nM (active)
- GI50 (NCI-H23): 126 nM (active)
- GI50 (TK-10): > 47500 nM (inactive)
- GI50 (UACC-257): 3240 nM (inactive)
- GI50 (SN12C): < 10 nM (active)
- GI50 (OVCAR-3): 10.4 nM (active)
- GI50 (SK-MEL-28): 254 nM (active)
- GI50 (PC-3): 134 nM (active)
- GI50 (SF-295): 40.1 nM (active)
- GI50 (UACC-62): 36.8 nM (active)
